Patent US7884122B2, “Extended release formulation and method of treating adrenergic dysregulation” (Shionogi Pharma, Inc., priority 2007, dated 2011)
≈ marks a conversion by molar mass, not a printed value.

What was measured:
[1] = test system: systolic and diastolic blood pressure; experiment: animal or person; settings: Homo sapiens, 600 h, Systolic BP vs AUCτ at Day 25, sigmoidal Emax model
Method: Mean baseline ABPM data for the three treatment groups were compared with mean data obtained on Day 26 (last day of treatment) and on Days 27 and 28. A more detailed PK/PD analysis was conducted by using the individual patient ABPM data to compare the blood pressure profile at Baseline and on Day 26 of treatment. The daytime (0- to 12-hour) intervals were used in the analysis, since pharmacokinetic data were collected on Day 25, over the daytime 12-hour dosing interval at steady state. In order to investigate the maintenance of effect at the tail end of the inter-dosing interval, differences between the SBP, DBP, and HR values at Baseline and the last two hours in the inter-dosing interval (Hours 11 and 12) on Day 26 were calculated for each patient. Paired t-tests were performed to test the significance of these differences between Baseline and the last two measuring times. The approach taken to quantify the effects of clonidine on blood pressure was to calculate the difference between the areas under the BP vs. time curves (AUCBP) at Baseline and on Day 26. These values were used to relate the pharmacodynamic effect to dose, as well as to conduct the PK/PD analyses.
Pharmacokinetic-pharmacodynamic modeling was conducted using the blood pressure response data and the Cmax, Cmin and AUCτ values at Day 25 of dosing. […]

[2] = traditional oral formulation of clonidine; cited from earlier work

For `Clc1cccc(Cl)c1N=C1NCCN1` [clonidine, 2,6-dichloro-N-2-imidazolidinylidene benzeneamine], the EC50 [1] is given as 4.7 ng/mL (≈ 0.0204 µM), the EC90 [1] is given as 6.69 ng/mL (≈ 0.0291 µM) and the biological half-life [2] is given as “about four to six hours”.
